As usually defined, the IC50 is the concentration needed to halve the response being measured. A low value points to inhibition by little substance. In general, Kd refers to the constant that tells how readily two partners part at equilibrium. Low values mean a tighter complex, high ones a looser complex.

Ends that are not written are not given here.

Data on five molecules can be found in article PMC7686308, “Overcoming the blood–brain barrier by Annexin A1-binding peptide to target brain tumours” (British Journal of Cancer, 2020).

One test relates to B16 cells. Kind of test: Cytotoxicity on B16 cells (CellTiter Glo). Format: cell-based, mouse. The following applies: B16, 2 days, CellTiter Glo, GraphPad Prism; for IC50: unit from plot axis. The method, then: (§1) Drug concentration (OM) Drug concentration ( nM) […]
(§2) Supplementary Fig 7 . Cytotoxicity of peptide-conjugated SN38, free peptide s and unconjugated SN-38 and irinotecan (CPT-11) on C6 and B16 cells cultured in vitro. Rat glioma C6 and mouse melanoma B16 cells were treated with reagents shown along the top panels at the concentration indicated and cultured for 2 days. Cell viability was determined by a CellTiter Glo (Promega) assay. The IC50 of each reagent was determined using GraphPad Prism program. N.D.: not determined.
On the technique in general: ATP-based viability assays read luminescence as a measure of living cells.

Another test relates to C6 cells. The test can be described thus: Cytotoxicity on C6 cells (CellTiter Glo). Type of test: cell-based, rat. Particulars: C6, 2 days, CellTiter Glo, GraphPad Prism; for IC50: unit from plot axis. As to the method: as §1, §2
Test [1] concerns B16-Luc brain and subcutaneous tumours. The test can be described thus: B16-Luc dual-tumour model in C57BL/6 mice. Format: in vivo, mouse (C57BL/6). The following applies: irinotecan 50 μmoles/kg i.v. daily, 6 days. The method, then: C6-Luc cells (5 × 10^4 suspended in 2 μl PBS) were injected into C57BL/6 mouse brain striatum using a stereotaxic frame as described previously.[21] Seven days later, mice underwent imaging for luciferase-expressing tumours. To do so, 100 μl luciferin (30 mg/ml PBS) was injected peritoneally. Mice were then anesthetised under isoflurane gas (20 ml/min) supplemented with oxygen (1 ml/min) and placed under a camera equipped with a Xenogen IVIS 200 imager at both the SBP and AIST animal facilities. Photon numbers were measured for 1–10 sec or for 1 min. For the dual-tumour model, C6-Luc cells were similarly injected into the brain of NOD-SCID mice. When a brain tumour became detectable by IVIS imager, C6-Luc cells (2 × 10^5 suspended in 100 μl PBS) were injected subcutaneously into the dorsal flank of the same mice. Photon numbers in brain and subcutaneous tumours were measured using the IVIS imager. The dual-tumour model was also produced using B16-Luc cells in the isogeneic C57BL/6 mouse. B16-Luc cells (5 × 10^4) were injected into brains of 8–10-weeks-old C57BL/6 female mice as described above for C6-Luc cells. When brain tumours became detectable, B16-Luc cells (2 × 10^5 cells) were injected subcutaneously into the dorsal flank of the same mouse.
IF7C(RR)-SN38 was injected intravenously through the tail vein into tumour-bearing mice once photon number of C6-Luc brain tumour reached 5 × 10^4, which usually occurred after 2 weeks. IF7C(RR)-SN38 (142 μg or 0.0567 μmoles) dissolved in 10 μl dimethylsulfoxide (DMSO) diluted with 100 μl of 50% Cremophore EL in ethanol plus 90 μl PBS was injected intravenously through the tail vein. As the average body weight of a mouse was 18 g, IF7C(RR)-SN38 dose per injection was 3.15 μmoles/kg. For B16-Luc brain tumours, IF7C(RR)-SN38 formulated with Cremophore EL was used at the dosage 7.0 μmoles/kg. Irinotecan (CPT-11), a water soluble SN38 prodrug, was dissolved in PBS and intravenously injected into mice at 50 μmoles /kg. In another set of experiments, brain tumour-bearing mice were treated with IF7C(RR)-SN38 (100 μg or 0.0412 μmoles) dissolved in 10 μl DMSO followed by dilution with 100 μl 10% Solutol HS15 in water. In that case, drug dosage was 2.5 μmoles/kg. Similarly formulated C(RR)-SN38 served as control.
Fig. 4 Effect of IF7C(RR)-SN38 on the dual-tumour model mice. a Dual-tumour model was established with C6-Luc cells in NOD-SCID mice. C6-Luc cells were grown both in brain and under the skin of mice. When tumours in brain and subcutaneous grew by showing photon number more than 2×10^4, IF7C(RR)-SN38 (3.15 μmoles/kg) was injected intravenously daily through tail vein for 9 days. b Effect of IF7C(RR)-SN38 on a dual-tumour model with B16-Luc melanoma cells in C57BL/6 mice. Growth of B16-Luc cells were monitored as in a similar manner as in a, followed by intravenous injection with either IF7C(RR)-SN38 (7.0 μmoles/kg), irinotecan (CPT-11) (50 μmoles/kg) or buffer control daily for 6 days. The drug was diluted in Cremophore EL. In each a and b, error bars denote means ± SEM. Statistical analysis was assessed by Student’s t-test.

Test [2] deals with N-terminally His-tagged ANXA1. The test can be described thus: FCS binding to N-terminally His-tagged ANXA1. Details: species or system human. Particulars: IF7C-A546, 37 °C, 1 h, diffusion time. The method, then:
(§3) A mixture of IF7C-A546 with Anxa1 or MC16 (50 μl) was loaded into each well of a 96-well plate and incubated at 37 °C for 1 h. FCS was performed with the MF20 analytical system (Olympus) using a 543 nm He–Ne laser for illumination. Each sample was measured five times with a data acquisition time of 10 sec per measurement. IF7C(RR) binding was defined as an increase in translational diffusion time relative to a control.
(§4) Fig. 2 Binding of IF7 to the ANXA1 N-terminal domain and full-length ANXA1 protein in vitro. a Plate binding assay of N-terminal biotinylated IF7C(RR) to human MC16 peptide and its mutants. Each synthetic MC16 and its mutant peptide (10 nmoles) was bound to maleimide-activated plastic well through its C-terminal cysteine residue. Biotinylated IF7C(RR) peptide (1 μg/mL) was added to each well and binding of biotinylated peptide was detected by peroxidase-conjugated streptavidin and peroxidase colour reaction. b FCS analysis of IF7 with ANXA1 (left) and with MC16 peptides (right) in solution. […] The proposed model was further validated by dG scoring, which was calculated using MOE software with GBVI/WSA, a program allows us to compare calculated and observed energetics.[59] The IF7 docking pose was calculated to be −3.7 kcal/mol.

The test system of test [3] is ANXA1 exhibiting a free N-terminus. Kind of test: FCS binding to ANXA1 with free N-terminus. Particulars: IF7C-A546, 37 °C, 1 h, increase in diffusion time. The arrangement: species or system human. The method, then:
as §3, §4

Test [4] concerns the target T1, MC16 (Annexin A1 N-terminal peptide), tetrameric (Homo sapiens).
T1 chain: MAMVSEFLKQAWFIEC
The test can be described thus: QCM.

Another test concerns the target T2, Annexin A1 (Homo sapiens, UniProt P04083).
T2 chain: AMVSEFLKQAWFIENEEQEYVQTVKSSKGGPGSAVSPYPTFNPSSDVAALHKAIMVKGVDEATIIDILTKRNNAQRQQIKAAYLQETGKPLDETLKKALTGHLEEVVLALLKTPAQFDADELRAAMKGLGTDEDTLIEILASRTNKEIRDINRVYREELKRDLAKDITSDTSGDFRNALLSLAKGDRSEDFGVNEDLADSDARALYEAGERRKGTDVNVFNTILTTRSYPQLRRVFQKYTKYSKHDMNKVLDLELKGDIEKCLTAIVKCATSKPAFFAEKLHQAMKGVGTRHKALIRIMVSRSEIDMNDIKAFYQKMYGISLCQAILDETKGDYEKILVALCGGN
The test can be described thus: QCM.

For `CCc1c2c(nc3ccc(OC(=O)N4CCC(N5CCCCC5)CC4)cc13)-c1cc3c(c(=O)n1C2)COC(=O)[C@]3(O)CC` [Irinotecan], the figures for the logIC50 with B16 cells and in the test with C6 cells were 4.443 and 4.103, respectively. For the same molecule, the IC50 in the test on B16 cells (Mus musculus, 48 h) turned out to be 27700 nM; in the test on C6 cells (Rattus norvegicus, 48 h), 12700 nM. Moreover, in test [1], the “brain tumour growth (photon number)” value is reported as “minimally suppressed brain tumour growth”. In addition, the “subcutaneous tumour growth (photon number)” value in test [1] was “suppressed subcutaneous tumour growth”.

With `CCc1c2c(nc3ccc(O)cc13)-c1cc3c(c(=O)n1C2)COC(=O)[C@]3(O)CC` [SN-38], in the test on B16 cells, the logIC50 amounted to 1.499 and the IC50 is 31.6 nM. Moreover, in the test with C6 cells, the logIC50 came out at 1.433 and half-maximal inhibition (IC50) required 27.1 nM.

“IFLLWQRCRR [IF7C(RR), IF7 with C-terminal cysteine extended by two arginines]”: the “binding in solution to N-terminally His-tagged ANXA1” value in test [2] is “did not significantly increase”. Besides, the “binding in solution to untagged ANXA1” value in test [3] is listed as “increased significantly compared to the control”.

B1: IF7C(RR) peptide (peptide)
chain: IFLLWQRCRR
modifications: not fully specified (residue 8); also: tetramer on 4-arm PEG via Cys
For the molecule B1, binding in test [4] was characterised by a dissociation constant (Kd) of 247 nM.

B2: IF7C(RR) peptide (peptide)
chain: IFLLWQRCRR
Turning to B2, the affinity with Annexin A1, expressed as Kd, was 60.1 nM.
